Earlier results, collected in patent US6642259B1, “Immune stimulating dietary supplement and method of use thereof” (Trustees of Tufts College, priority 1999, dated 2003).

What was measured:
[1] = tested on: T cell function; conditions: supplementation of old mice
[2] = tested on: T-cell mediated funtion; conditions: supplementation of the elderly human

For vitamin E, which T cell function [1] is on record?
Its T cell function is “increased”.

And the “immunological responses (e.g. T-cell mediated funtion)” value [2]?
The value was “improved”.
